In US20070244097A1 (priority 2003, published 2007):

Target: α7 nAChR subtype (Rattus norvegicus, UniProt Q05941)
Type: binding
Conditions: read-out: KD (saturation curve, one site model)

α7 nAChR subtype, sequence (Q05941 23-502 limits assumed): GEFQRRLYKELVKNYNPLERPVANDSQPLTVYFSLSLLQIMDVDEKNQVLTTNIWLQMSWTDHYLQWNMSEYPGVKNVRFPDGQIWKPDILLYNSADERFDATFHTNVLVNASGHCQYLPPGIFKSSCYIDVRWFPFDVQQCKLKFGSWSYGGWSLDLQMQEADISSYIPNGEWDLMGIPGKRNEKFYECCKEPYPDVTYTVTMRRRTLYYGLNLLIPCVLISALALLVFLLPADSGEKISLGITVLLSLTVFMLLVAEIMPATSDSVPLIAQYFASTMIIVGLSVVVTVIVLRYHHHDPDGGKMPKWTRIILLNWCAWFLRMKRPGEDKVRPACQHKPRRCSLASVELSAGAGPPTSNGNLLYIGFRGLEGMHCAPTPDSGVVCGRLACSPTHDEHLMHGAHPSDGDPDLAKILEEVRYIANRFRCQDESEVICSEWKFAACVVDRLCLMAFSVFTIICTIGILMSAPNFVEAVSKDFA

^125I-α-Bungarotoxin [^125I-α-BTX]
Kd: 1.67 nM
